What was measured:
basal forebrain cultures = experiment: Basal Forebrain ChAT Activity Assay; type: cell-based, rat; conditions: day six
Description: Compounds of the invention were assessed for their ability to promote survival and increase in ChAT activity in basal forebrain cultures. ChAT activity in these cultures is a biochemical marker for the cholinergic neurons (less than 5% of the cells in culture), which represent the major cholinergic input to the hippocampal formation, olfactory nucleus, interpeduncular nucleus, cortex, amygdala, and parts of the thalamus. […] The basal forebrain was dissected from embryonic day 17 or 18 rat embryos and the cells were […] with Dispase™ (neutral protease, Collaborative Research). Neurons were plated at 5×10^4 cells/well (1.5×10^5 cells/cm^2) in wells of 96-well plates previously coated with […] and laminin. Cells were cultured in serum-free N2 medium containing 0.05% bovine serum albumin (BSA) (Bottenetein et al., supra) at 37° in a humidified atmosphere of 5% CO2/95% air. ChAT activity was measured in vitro at day six, using a modification of the Formum procedure (supra) according to McManaman et al. (supra) and Glicksman et al. (J. Neurochem. 61:210-221, 1993).
(§1) Compounds which increased ChAT activity at least 120% of the control activity are considered active.

[1] = system: dissociated spinal cord cultures; experiment: Spinal Cord ChAT Activity Assay; type: cell-based, rat
Description: The effect of selected ring substituted K-252a derivatives on CHAT activity was assayed in dissociated spinal cord cultures prepared from fetal rats using the procedure described in U.S. Pat. No. 5,461,146, Columns 26 and 27, Examples 6 and 7. ChAT is the enzyme that catalyzes the synthesis of the neurotransmitter acetylcholine, and it is a specific biochemical marker for cholinergic neurons. In the spinal cord, the large majority of cholinergic neurons are motor neurons. Assay of this enzyme may thus be used as an indication of the effects of a factor, or actors, on the survival of cholinergic neurons and/or regulation of this enzyme.
as §1

[2] = concentration not given, tested between 10 nM and 500 nM, at least 120% of control = active

**Q.** How did the “ChAT Activity maximum efficacy % of Control (conc)” value (shortened to “ChAT Activity maximum efficacy %”) (basal forebrain cultures; [2]) turn out when COC(=O)C1(O)CC2OC1(C)n1c3ccc(CCNCc4ccc(OC)cc4)cc3c3c4c(c5c6cc(CCNCc7ccc(OC)cc7)ccc6n2c5c31)C(=O)NC4 (stereo not drawn) [Compound 80] was run?
**A.** <120 % of Control

**Q.** For COC(=O)C1(O)CC2OC1(C)n1c3ccc(CCCN4CCCCC4)cc3c3c4c(c5c6cc(CCCN7CCCCC7)ccc6n2c5c31)C(=O)NC4 (stereo not drawn) [Compound 82], which “ChAT Activity maximum efficacy %” value (basal forebrain cultures; maximum efficacy at 250 nM) is on record?
**A.** 150 (250 nM) % of Control

**Q.** How did the “ChAT Activity maximum efficacy %” value (basal forebrain cultures; [2]) turn out when COC(=O)C1(O)CC2OC1(C)n1c3ccc(CCSc4ccncc4)cc3c3c4c(c5c6cc(CCSc7ccncc7)ccc6n2c5c31)C(=O)NC4 (stereo not drawn) [Compound 93] was run?
**A.** <120 % of Control

**Q.** Which “ChAT Activity maximum efficacy %” value ([1]; maximum efficacy at 30 nM) does the source give for COCc1ccc2c(c1)c1c3c(c4c5cc(C=Cc6ccccn6)ccc5n5c4c1n2C1CC(O)(C(=O)OC)C5(C)O1)CNC3=O (stereo not drawn) [Compound 116] here?
**A.** 231 (30 nM) % of Control

**Q.** With CCN(CC)CCCc1ccc2c(c1)c1c3c(c4c5cc(CCCN(CC)CC)ccc5n5c4c1n2C1CC(O)(C(=O)OC)C5(C)O1)CNC3=O (stereo not drawn) [Compound 84] as the molecule, how does the “ChAT Activity maximum efficacy %” value (basal forebrain cultures; [2]) read?
**A.** <120 % of Control

**Q.** With COC(=O)CCc1ccc2c(c1)c1c3c(c4c5cc(CCC(=O)OC)ccc5n5c4c1n2C1CC(O)(C(=O)OC)C5(C)O1)CNC3=O (stereo not drawn) [Compound 139] as the molecule, how does the “ChAT Activity maximum efficacy %” value ([1]; concentration not given, at least 120% of control = active) read?
**A.** <120 % of Control

**Q.** With COC(=O)C1(O)CC2OC1(C)n1c3ccc(C=Cc4ccccn4)cc3c3c4c(c5c6cc(CSc7nc8ccccc8[nH]7)ccc6n2c5c31)C(=O)NC4 (stereo not drawn) [Compound 120] as the molecule, how does the “ChAT Activity maximum efficacy %” value ([1]; maximum efficacy at 300 nM) read?
**A.** 257 (300 nM) % of Control

**Q.** Which “ChAT Activity maximum efficacy %” value (basal forebrain cultures; [2]) does the source give for COC(=O)C1(O)CC2OC1(C)n1c3ccc(CCN(C)CCO)cc3c3c4c(c5c6cc(CCN(C)CCO)ccc6n2c5c31)C(=O)NC4 (stereo not drawn) [Compound 78] here?
**A.** <120 % of Control

**Q.** How did the “ChAT Activity maximum efficacy %” value ([1]; maximum efficacy at 30 nM) turn out when COC(=O)C=Cc1ccc2c(c1)c1c3c(c4c5cc(C=CC(=O)OC)ccc5n5c4c1n2C1CC(O)(C(=O)OC)C5(C)O1)CNC3=O (stereo not drawn) [Compound 1] was run?
**A.** 153 (30 nM) % of Control

**Q.** Which “ChAT Activity maximum efficacy %” value (basal forebrain cultures; [2]) does the source give for COC(=O)C1(O)CC2OC1(C)n1c3ccc(CCI)cc3c3c4c(c5c6cc(CCI)ccc6n2c5c31)C(=O)NC4 (stereo not drawn) [Compound 70a] here?
**A.** <120 % of Control

**Q.** COC(=O)C1(O)CC2OC1(C)n1c3ccc(CCCN4CCOCC4)cc3c3c4c(c5c6cc(CCCN7CCOCC7)ccc6n2c5c31)C(=O)NC4 (stereo not drawn) [Compound 83] was tested. Which “ChAT Activity maximum efficacy %” value (basal forebrain cultures; [2]) did it give?
**A.** <120 % of Control

**Q.** With COC(=O)C1(O)CC2OC1(C)n1c3ccc(CCc4ccncc4)cc3c3c4c(c5c6cc(CCc7ccncc7)ccc6n2c5c31)C(=O)NC4 (stereo not drawn) [Compound 146] as the molecule, how does the “ChAT Activity maximum efficacy %” value ([1]; maximum efficacy at 300 nM) read?
**A.** 153 (300 nM) % of Control

**Q.** COC(=O)C1(O)CC2OC1(C)n1c3ccc(CCCSc4nc5ccccc5s4)cc3c3c4c(c5c6cc(CCCSc7nc8ccccc8s7)ccc6n2c5c31)C(=O)NC4 (stereo not drawn) [Compound 96] was tested. Which “ChAT Activity maximum efficacy %” value (basal forebrain cultures; [2]) did it give?
**A.** <120 % of Control

**Q.** For CCOCc1ccc2c(c1)c1c3c(c4c5cc(C=Cc6ccccn6)ccc5n5c4c1n2C1(C)OC5CC1(O)C(=O)OC)C(=O)NC3 (stereo not drawn) [Compound 103], which “ChAT Activity maximum efficacy %” value (basal forebrain cultures; maximum efficacy at 50 nM) is on record?
**A.** 154 (50 nM) % of Control

**Q.** How did the “ChAT Activity maximum efficacy %” value (basal forebrain cultures; maximum efficacy at 50 nM) turn out when COCc1ccc2c(c1)c1c3c(c4c5cc(C=Cc6ccccn6)ccc5n5c4c1n2C1(C)OC5CC1(O)C(=O)OC)C(=O)NC3 (stereo not drawn) [Compound 102] was run?
**A.** 176 (50 nM) % of Control

**Q.** For COC(=O)CSCCc1ccc2c(c1)c1c3c(c4c5cc(CCSCC(=O)OC)ccc5n5c4c1n2C1CC(O)(C(=O)OC)C5(C)O1)CNC3=O (stereo not drawn) [Compound 89], which “ChAT Activity maximum efficacy %” value (basal forebrain cultures; [2]) is on record?
**A.** <120 % of Control

**Q.** With CNCCc1ccc2c(c1)c1c3c(c4c5cc(CCNC)ccc5n5c4c1n2C1CC(O)(C(=O)OC)C5(C)O1)CNC3=O (stereo not drawn) [Compound 79] as the molecule, how does the “ChAT Activity maximum efficacy %” value (basal forebrain cultures; [2]) read?
**A.** <120 % of Control

**Q.** Which “ChAT Activity maximum efficacy %” value (basal forebrain cultures; [2]) does the source give for COC(=O)C1(O)CC2OC1(C)n1c3ccc(CCN4CCOCC4)cc3c3c4c(c5c6cc(CCN7CCOCC7)ccc6n2c5c31)C(=O)NC4 (stereo not drawn) [Compound 76] here?
**A.** <120 % of Control

**Q.** For COC(=O)C1(O)CC2OC1(C)n1c3ccc(C=Cc4ccccn4)cc3c3c4c(c5c6cc(Br)ccc6n2c5c31)C(=O)NC4 (stereo not drawn) [Compound 142], which “ChAT Activity maximum efficacy %” value ([1]; maximum efficacy at 300 nM) is on record?
**A.** 223 (300 nM) % of Control

**Q.** COC(=O)C1(O)CC2OC1(C)n1c3ccc(C=Cc4ccncc4)cc3c3c4c(c5c6cc(C=Cc7ccncc7)ccc6n2c5c31)C(=O)NC4 (stereo not drawn) [Compound 145] was tested. Which “ChAT Activity maximum efficacy %” value ([1]; maximum efficacy at 300 nM) did it give?
**A.** 129 (300 nM) % of Control

**Q.** With COCOCc1ccc2c(c1)c1c3c(c4c5cc(COCOC)ccc5n5c4c1n2C1CC(O)(C(=O)OC)C5(C)O1)CNC3=O (stereo not drawn) [Compound 155] as the molecule, how does the “ChAT Activity maximum efficacy %” value ([1]; maximum efficacy at 300 nM) read?
**A.** 197 (300 nM) % of Control

**Q.** COC(=O)C1(O)CC2OC1(C)n1c3ccc(CCCOC=O)cc3c3c4c(c5c6cc(CCCOC=O)ccc6n2c5c31)C(=O)NC4 (stereo not drawn) [Compound 73b] was tested. Which “ChAT Activity maximum efficacy %” value (basal forebrain cultures; maximum efficacy at 250 nM) did it give?
**A.** 171 (250 nM) % of Control

**Q.** COC(=O)C1(O)CC2OC1(C)n1c3ccc(C=CCN(C)C)cc3c3c4c(c5c6cc(C=CCN(C)C)ccc6n2c5c31)C(=O)NC4 (stereo not drawn) [Compound 64] was tested. Which “ChAT Activity maximum efficacy %” value (basal forebrain cultures; maximum efficacy at 250 nM) did it give?
**A.** 165 (250 nM) % of Control

**Q.** For COC(=O)C1(O)CC2OC1(C)n1c3ccc(C(=O)CSc4ccncc4)cc3c3c4c(c5c6ccccc6n2c5c31)C(=O)NC4 (stereo not drawn) [Compound 42b], which “ChAT Activity maximum efficacy %” value (basal forebrain cultures; maximum efficacy at 250 nM) is on record?
**A.** 164 (250 nM) % of Control

**Q.** Which “ChAT Activity maximum efficacy %” value (basal forebrain cultures; [2]) does the source give for COC(=O)C1(O)CC2OC1(C)n1c3ccc(CCN4CCCCC4)cc3c3c4c(c5c6cc(CCN7CCCCC7)ccc6n2c5c31)C(=O)NC4 (stereo not drawn) [Compound 75] here?
**A.** <120 % of Control

**Q.** Which “ChAT Activity maximum efficacy %” value (basal forebrain cultures; maximum efficacy at 250 nM) does the source give for COC(=O)C1(O)CC2OC1(C)n1c3ccc(CCCO)cc3c3c4c(c5c6cc(CCCO)ccc6n2c5c31)C(=O)NC4 (stereo not drawn) [Compound 73c] here?
**A.** 190 (250 nM) % of Control

**Q.** Which “ChAT Activity maximum efficacy %” value (basal forebrain cultures; [2]) does the source give for COC(=O)C1(O)CC2OC1(C)n1c3ccc(COCCN(C)C)cc3c3c4c(c5c6cc(C=Cc7ccccn7)ccc6n2c5c31)C(=O)NC4 (stereo not drawn) [Compound 104] here?
**A.** <120 % of Control

**Q.** CCOC(=O)CCSCCc1ccc2c(c1)c1c3c(c4c5cc(CCSCCC(=O)OCC)ccc5n5c4c1n2C1CC(O)(C(=O)OC)C5(C)O1)CNC3=O (stereo not drawn) [Compound 90] was tested. Which “ChAT Activity maximum efficacy %” value (basal forebrain cultures; [2]) did it give?
**A.** <120 % of Control

**Q.** CCSCc1ccc2c(c1)c1c3c(c4c5cc(C=Cc6ccccn6)ccc5n5c4c1n2C1(C)OC5CC1(O)C(=O)OC)C(=O)NC3 (stereo not drawn) [Compound 105] was tested. Which “ChAT Activity maximum efficacy %” value (basal forebrain cultures; maximum efficacy at 50 nM) did it give?
**A.** 136 (50 nM) % of Control

**Q.** For COC(=O)C1(O)CC2OC1(C)n1c3ccccc3c3c4c(c5c6cc(C#CCN(C)C)ccc6n2c5c31)C(=O)NC4 (stereo not drawn) [Compound 61], which “ChAT Activity maximum efficacy %” value (basal forebrain cultures; maximum efficacy at 50 nM) is on record?
**A.** 166 (50 nM) % of Control

**Q.** For COC(=O)C1(O)CC2OC1(C)n1c3ccc(C(=O)CSc4ncccn4)cc3c3c4c(c5c6cc(C(=O)CSc7ncccn7)ccc6n2c5c31)C(=O)NC4 (stereo not drawn) [Compound 49], which “ChAT Activity maximum efficacy %” value (basal forebrain cultures; [2]) is on record?
**A.** <120 % of Control

**Q.** With CCN(CC)CCc1ccc2c(c1)c1c3c(c4c5cc(CCN(CC)CC)ccc5n5c4c1n2C1CC(O)(C(=O)OC)C5(C)O1)CNC3=O (stereo not drawn) [Compound 77] as the molecule, how does the “ChAT Activity maximum efficacy %” value (basal forebrain cultures; maximum efficacy at 250 nM) read?
**A.** 132 (250 nM) % of Control

**Q.** Which “ChAT Activity maximum efficacy %” value (basal forebrain cultures; maximum efficacy at 250 nM) does the source give for COC(=O)C1(O)CC2OC1(C)n1c3ccc(CSCCN(C)C)cc3c3c4c(c5c6cc(C=Cc7ccccn7)ccc6n2c5c31)C(=O)NC4 (stereo not drawn) [Compound 106] here?
**A.** 135 (250 nM) % of Control
